Results on one compound are retold here after patent US20090175845A1, “METHODS FOR IDENTIFYING COMPOUNDS THAT MODULATE PHB DOMAIN PROTEIN ACTIVITY AND COMPOSITIONS THEREOF” (THE TRUSTEES OF COLUMBIA UNIVERSITY IN THE CITY OF NEW YORK, priority 2005, published 2009).

The target of this test is T1, MEC-2 (Caenorhabditis elegans, UniProt Q27433).
T1 construct: expressed in transfected cells; host or cells: HEK 293T
T1 sequence (Q27433 1-481): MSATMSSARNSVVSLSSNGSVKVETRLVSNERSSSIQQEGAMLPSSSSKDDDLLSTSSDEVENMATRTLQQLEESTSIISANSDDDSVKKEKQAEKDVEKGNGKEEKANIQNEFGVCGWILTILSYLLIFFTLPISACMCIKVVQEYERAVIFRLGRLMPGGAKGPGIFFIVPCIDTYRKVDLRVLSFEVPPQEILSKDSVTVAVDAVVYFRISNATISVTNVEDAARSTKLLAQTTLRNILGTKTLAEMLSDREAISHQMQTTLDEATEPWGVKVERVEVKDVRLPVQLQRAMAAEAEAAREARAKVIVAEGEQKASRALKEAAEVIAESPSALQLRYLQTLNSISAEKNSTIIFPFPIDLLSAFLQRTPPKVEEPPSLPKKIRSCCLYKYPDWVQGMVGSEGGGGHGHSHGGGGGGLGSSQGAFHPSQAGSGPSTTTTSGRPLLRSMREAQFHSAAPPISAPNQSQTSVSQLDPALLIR
As to the kind of experiment: Photoaffinity labeling with photoactivatable lipids in HEK 293T cells. The class given is binding, C. elegans. The following applies: MEC-2 expressed in HEK 293T cells, 16 hours, UV irradiation, autoradiography. The protocol: Photoaffinity labeling. Experiments were performed as described infra. For labeling with [3H]photocholesterol or [3H]photophosphatidylcholine, cells were supplemented with delipidized FCS and [3H]photocholesterol-MBCD complex or 10-azi-stearate and [3H]choline were added. After 16 hours, cells were washed three times with Ca/Mg-PBS (PBS containing 0.1 mM CaCl2 and 1 mM MgCl2) and irradiated for 30 minutes in Ca/Mg-PBS with a 100 W mercury lamp. For further analysis, cells were lysed on ice for 1 h in lysis buffer (50 mM Tris-HCl pH 7.4, 140 mM NaCl, 5 mM EDTA, 0.5 mM phenylmethylsulfonyl fluoride (PMSF), 1% Triton® X-100, 0.5% deoxycholate). The lysate was centrifuged for eight minutes at 10,000×g, and the supernatant was subjected to immunoprecipitation using an anti-FLAG monoclonal antibody. Aliquots of the starting extract, the supernatants after immunoprecipitation and the immunoprecipitates were separated by SDS-PAGE (12%) followed by blotting of the proteins on PVDF membrane. Radioactivity was detected by phosphoimaging (Fujifilm BAS-2500, Fuji Photo Film Co., Ltd, Japan) using a Tritium-sensitive BAS-TR2025 imaging plate (Fuji Photo Film Co., Ltd, Japan). From the same membrane, an immunoblot was performed using anti-FLAG antibodies.
Cell Culture Studies. Most cell studies used HEK 293T cells that were grown in DMEM as described [Huber et al. (2001) J. Biol. Chem. 18:18]. […]

For `CC(C)CCC[C@@H](C)[C@H]1CC[C@H]2[C@@H]3CC=C4C[C@@H](O)CC[C@]4(C)[C@H]3CC[C@]12C` [cholesterol], the “binding of photoactivatable lipid to MEC-2” value was “bound”.
